Reference: patent publication US12472195B2, “Inhalation formulations of antimicrobial compounds” (priority 2020, dated 2025)
Like-named read-outs stand apart in the source and are kept apart here.

Key:
mouse lung tissue = test: Lung histology examination after intratracheal administration in mice
Procedure: The animal study was approved by the Animal Ethics Committee of the Monash Institute of Pharmaceutical Sciences, Monash University (Parkville, Victoria, Australia). All experiments were conducted in accordance with the Australian Code of Practice for the Care and Use of Animals for Scientific Purposes. Swiss Albino mice (female; age, 6 weeks; body weight, 20 to 25 g) were obtained from the Monash Animal Research Platform (Clayton, Victoria, Australia). […] The animals were housed individually in metabolic cages and had free access to food and water. Mice were intratracheally administered 10 mg/kg of polymyxin B, 60 mg/kg of tobramycin and the combination of tobramycin with polymyxin B in sterile 0.9% saline three times a day and lung histology examination were conducted in a blind manner.

[1] = system: human lung epithelial A549 cells
Procedure: Human lung epithelial cells (A549 cells) were obtained from American Type Culture Collection (ATCC® CCL-185™, Manassas, VA, USA), grown and sub-cultured in Dulbecco's modified Eagle's medium (DMEM) supplemented with 10% fetal bovine serum (FBS). A549 cells (1×10^5 cells/mL, 12-well plate) were seeded in supplemented DMEM at 37° C. in a humidified atmosphere containing 5% CO2 until 80% confluency. All experiments were conducted in three replicates. Cells were treated with 1.0 mM polymyxin B in the presence and absence of tobramycin (1.0, 3.0, 5.0, 10.0 and 20.0 mM), amikacin (5.0 and 20.0 mM), gentamicin (5.0, 10.0 and 20.0 mM) and plazomicin (5.0 and 20.0 mM) in supplemented DMEM (1% FBS); and cell viability were examined at 24h with flow cytometry after staining with propidium iodide.

[2] = mice, intratracheal, three times a day, 10 mg/kg polymyxin B, 60 mg/kg tobramycin, or both

Row | Compound | effect on polymyxin B-induced pulmonary toxicity (mouse lung tissue; mouse, in vivo) | cell viability ([1]; human, 24 h, 20 mM) [%] | area of lung tissue affected by damage (mouse lung tissue; [2]) | semi-quantitative score (SQS) of lung histology (mouse lung tissue; [2]) | cell viability ([1]; 1.0 mM polymyxin B alone, A549 cells, 24h, mean±SD n=3) [%]
1 | NC[C@H]1O[C@H](O[C@H]2[C@H](O)[C@@H](O[C@H]3O[C@H](CO)[C@@H](O)[C@H](N)[C@H]3O)[C@H](N)C[C@@H]2N)[C@H](N)C[C@@H]1O [Tobramycin, tobramycin] | significantly reduced | 87.4±1.6 | – | – | –
2 | polymyxin B | – | – | 25-50% | +2 to +5 | 40.7±7.4
